Experimental findings from publication doi:10.1101/144204v1, “On the use of the experimentally determined enzyme inhibition constant as a measure of absolute binding affinity” (biorxiv, 2017) are described below.

Structures can show the parent of a compound that is named as a salt.

This assay deals with T1, eeAChE (Electrophorus electricus acetylcholinesterase) (Electrophorus electricus, UniProt O42275).
T1 construct: gene ache; construct details not given
Description: Ellman assay (ATCh/DTNB, […] nm), Lineweaver-Burk. It is filed as biochemical. (DTNB colorimetry detects thiols as they appear.)

T1 sequence (O42275 24-633): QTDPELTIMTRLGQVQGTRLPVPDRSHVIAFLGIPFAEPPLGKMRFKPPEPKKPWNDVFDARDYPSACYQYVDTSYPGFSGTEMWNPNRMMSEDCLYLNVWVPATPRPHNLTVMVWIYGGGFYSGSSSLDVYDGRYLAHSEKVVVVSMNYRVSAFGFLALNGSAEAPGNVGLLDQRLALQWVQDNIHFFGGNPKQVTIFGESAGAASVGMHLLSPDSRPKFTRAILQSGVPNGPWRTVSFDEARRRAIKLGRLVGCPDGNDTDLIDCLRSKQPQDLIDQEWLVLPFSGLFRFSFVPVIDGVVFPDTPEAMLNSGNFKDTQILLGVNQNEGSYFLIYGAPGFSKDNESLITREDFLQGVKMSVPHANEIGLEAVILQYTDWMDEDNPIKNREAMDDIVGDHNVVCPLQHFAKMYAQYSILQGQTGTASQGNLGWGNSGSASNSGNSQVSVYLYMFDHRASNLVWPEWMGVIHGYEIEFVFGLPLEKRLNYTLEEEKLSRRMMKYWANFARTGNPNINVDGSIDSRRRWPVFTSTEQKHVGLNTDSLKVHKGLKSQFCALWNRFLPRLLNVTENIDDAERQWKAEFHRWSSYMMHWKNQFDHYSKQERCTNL

As for `c1ccc2c(NCCCCCCCNc3c4c(nc5ccccc35)CCCC4)c3c(nc2c1)CCCC3` [bis(7)-tacrine, 1,7-N-heptylene-bis-9,9'-amino-1,2,3,4-tetrahydro-acridinium dihydrochloride], the Ki (commonly the equilibrium dissociation constant of an inhibitor or competing ligand from its target) came to 2.9 ± 0.4 pM.
